Reference: patent US8273527B2, “Viral variants” (priority 1999, dated 2012)

How the values were obtained:
HBV [1] = details: in vitro; cited from earlier work
HBV [2] = test: FCV prophylaxis liver transplantation trial (response pre-OLT, HBV recurrence post-OLT); type: in vivo, patients
Source text: The clinical details of the FCV prophylaxis liver transplantation protocol as previously described (19). Briefly, the aim of the study was to compare the safety and efficacy of oral FCV and IV penciclovir in reducing the risk of hepatitis B re-infection post-OLT in liver transplant patients. The study design was a multicentre, randomized, part double-blind, part placebo controlled trial in patients with end stage liver disease requiring OLT. Patients with HBV DNA levels more than 90 pg/ml at study entry (by hybridization) [high replicators] were treated with both FCV and HBIG post-OLT. These high replicators were treated with FCV (500 mg tds) to reduce HBV DNA levels prior to OLT. Famciclovir treatment was continued for 12 months post-OLT. An untreated control group of patients with HBV DNA levels less than 90 pg/ml [low replicators] at study entry were treated with HBIG alone post-OLT. In the original study, thirty six patients underwent OLT, and of these the clinical and virological outcome of twenty-two of the FCV treated patients has recently been presented (17 Manns).
Twenty six patients who had HBV levels more than 90 pg/ml at study entry (high HBV replicator [HR]) were treated with FCV pre-OLT and those patients who responded were then treated with HBIG plus FCV post-OLT. […]

duck HBV virus = details: oral, in vivo; cited from earlier work
HBV [3] = details: one patient with severe hepatitis B following OLT; cited from earlier work
duck HBV = details: in vitro; cited from earlier work
[4] = target: HBV DNA polymerase-reverse transcriptase (Hepatitis B virus genotype D subtype ayw, UniProt P03156); details: in vitro; cited from earlier work
HBV DNA polymerase-reverse transcriptase, sequence (P03156 whole entry): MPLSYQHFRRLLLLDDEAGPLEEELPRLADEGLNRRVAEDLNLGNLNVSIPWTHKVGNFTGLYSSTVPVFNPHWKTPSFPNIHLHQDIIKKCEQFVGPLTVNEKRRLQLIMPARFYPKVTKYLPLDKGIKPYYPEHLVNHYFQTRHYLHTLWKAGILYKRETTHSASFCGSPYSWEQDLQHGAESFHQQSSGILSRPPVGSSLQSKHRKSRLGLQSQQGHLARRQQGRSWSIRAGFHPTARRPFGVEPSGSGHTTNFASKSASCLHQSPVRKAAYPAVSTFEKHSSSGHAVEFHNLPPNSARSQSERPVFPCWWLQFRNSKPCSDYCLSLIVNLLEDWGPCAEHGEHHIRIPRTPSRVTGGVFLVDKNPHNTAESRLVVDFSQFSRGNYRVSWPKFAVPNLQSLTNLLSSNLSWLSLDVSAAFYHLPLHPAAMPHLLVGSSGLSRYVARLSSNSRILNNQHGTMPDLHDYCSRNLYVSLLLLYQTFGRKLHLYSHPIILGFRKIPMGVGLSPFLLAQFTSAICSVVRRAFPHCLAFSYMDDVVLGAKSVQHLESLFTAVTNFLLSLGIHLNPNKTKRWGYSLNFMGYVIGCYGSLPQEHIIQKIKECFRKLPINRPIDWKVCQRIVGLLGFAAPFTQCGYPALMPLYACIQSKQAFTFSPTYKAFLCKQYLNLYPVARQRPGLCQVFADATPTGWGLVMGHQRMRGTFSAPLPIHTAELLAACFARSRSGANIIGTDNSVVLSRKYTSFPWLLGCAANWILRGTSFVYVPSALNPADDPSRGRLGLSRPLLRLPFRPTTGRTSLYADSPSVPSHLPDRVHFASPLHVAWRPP

Nc1ncnc2c1ncn2CCOCP(=O)(O)O [Adefovir]
anti-HBV activity (HBV [1]): effective anti-HBV activity

CC(=O)OCC(CCn1cnc2cnc(N)nc21)COC(C)=O [FCV, famciclovir]
patients who responded to FCV (HBV [2]; of 26 high HBV replicators (HBV more than 90 pg/ml at study entry) treated with FCV pre-OLT): 19 patients
patients who did not initially respond to FCV (HBV [2]; of the initial 26 high HBV replicators treated with FCV pre-OLT): 6 patients
inhibition of intra-hepatic replication of duck HBV virus (duck HBV virus): inhibit
effect on HBV DNA replication (HBV [3]): reduce HBV DNA replication

Nc1nc2c(ncn2CCC(CO)CO)c(=O)[nH]1 [Penciclovir, penciclovir]
inhibitory activity against duck HBV DNA synthesis (duck HBV): potent inhibitory activity
inhibition of HBV DNA polymerase-reverse transcriptase activity [4]: inhibit
